In ChEMBL document CHEMBL1201862, “PubChem BioAssay data set” (2004):
Active and inactive are the calls of the source. Cut-off read from the data, not from the text of the source, for most assays here: actives have a measured EC50 and inactives only a lower limit.

How the values were obtained:
[1] = NIH-3T3 fibroblast cytotoxicity, dose response, cytotoxicity control, cell-based, fluorescence, Alamar Blue, secondary assay (AID 2327); type: functional;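 note: NIH-3T3 mouse fibroblasts cultured with fluconazole at 8 µg/mL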
[2] = test system: Streptococcus sp. 'group A'; experiment: growth inhibition of control SK(-) GAS strain, dose response, counter-screen for streptokinase expression inhibitor project, luminescence, kanamycin, BacTiterGlo, confirmation (AID 1900); type: functional, organism-based
Streptococcus = experiment: Group A Streptococcus viability loss, dose response, counter-screen for streptokinase expression inhibitor project, luminescence, BacTiterGlo (AID 1915); type: functional, organism-based;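 note: potency for reduction of bacterial viability or growth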
Streptokinase A = molecular target: T1, Streptokinase A (Streptococcus pyogenes serotype M1, UniProt P10520); experiment: S. pyogenes streptokinase expression inhibitors, potency, dose response, plasminogen activation absorbance, OD405 (AID 1914); type: functional, Streptococcus pyogenes M1 GAS;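 note: secreted streptokinase activity via plasminogen activation per viability signal from cell pellet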
T1 sequence (P10520 whole entry): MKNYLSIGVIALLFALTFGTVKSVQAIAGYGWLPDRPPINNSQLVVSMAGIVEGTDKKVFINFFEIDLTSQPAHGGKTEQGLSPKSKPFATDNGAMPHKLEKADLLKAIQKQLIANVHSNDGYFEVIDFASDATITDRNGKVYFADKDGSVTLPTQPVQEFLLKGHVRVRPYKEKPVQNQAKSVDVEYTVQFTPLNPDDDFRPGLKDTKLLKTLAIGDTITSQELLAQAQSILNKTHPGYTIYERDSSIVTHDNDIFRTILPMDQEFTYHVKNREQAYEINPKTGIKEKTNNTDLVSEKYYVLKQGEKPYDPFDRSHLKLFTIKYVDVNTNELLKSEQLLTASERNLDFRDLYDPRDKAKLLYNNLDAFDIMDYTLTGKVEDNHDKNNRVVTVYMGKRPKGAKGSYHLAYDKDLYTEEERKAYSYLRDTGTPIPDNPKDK

[3] = C. albicans growth with fluconazole, confirmation, fluorescence, retest (AID 2467); type: functional, cell-based
[4] = molecular target: T2, Rac GTPase-activating protein 1 (Homo sapiens, UniProt Q9H0H5); experiment: MgcRacGAP GTPase-activating activity inhibitors, confirmation, biochemical, ADP Hunter fluorescence, primary and confirmatory (AID 624330); type: functional
T2 sequence (Q9H0H5 whole entry): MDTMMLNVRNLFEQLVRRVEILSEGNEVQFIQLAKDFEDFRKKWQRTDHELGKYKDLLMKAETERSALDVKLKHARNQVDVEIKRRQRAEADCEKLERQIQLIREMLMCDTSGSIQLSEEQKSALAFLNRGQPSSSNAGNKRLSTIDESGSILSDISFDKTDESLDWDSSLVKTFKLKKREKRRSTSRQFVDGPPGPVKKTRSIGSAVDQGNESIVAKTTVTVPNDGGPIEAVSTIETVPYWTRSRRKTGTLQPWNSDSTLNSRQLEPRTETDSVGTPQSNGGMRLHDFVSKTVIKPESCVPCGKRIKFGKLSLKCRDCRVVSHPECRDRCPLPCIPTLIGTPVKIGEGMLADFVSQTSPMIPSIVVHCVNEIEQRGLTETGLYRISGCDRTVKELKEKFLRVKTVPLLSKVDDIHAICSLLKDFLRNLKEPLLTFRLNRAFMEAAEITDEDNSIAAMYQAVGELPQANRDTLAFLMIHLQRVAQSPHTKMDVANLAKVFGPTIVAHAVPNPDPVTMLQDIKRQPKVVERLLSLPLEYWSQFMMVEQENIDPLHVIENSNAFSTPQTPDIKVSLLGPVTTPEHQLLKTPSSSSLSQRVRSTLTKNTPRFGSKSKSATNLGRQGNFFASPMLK

[5] = cytotoxicity toward NIH3T3 fibroblasts, dose response, counter-screen, cell-based, ATP luminescence, mouse fibroblasts (AID 2010); type: functional;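 note: cells exposed to compound for about 90 hours before reading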
[6] = Luminescence Cell-Based Dose Response HTS to Identify Inhibitors of 5'UTR Stem-Loop Driven Prion Protein mRNA Translation in H4 Neuroglioblastoma Cells. [Related pubchem assays: 1827 (Project Summary), 1813 (Primary HTS)]; type: functional
[7] = inhibitors of intracellular T. cruzi replication, confirmation, NIH3T3 host cells, beta-gal luminescence (AID 2044); type: functional, cell-based;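 note: intracellular parasites grown in NIH/3T3 mouse fibroblasts as host cells; luminescent beta-galactosidase reporter signal from transgenic T. cruzi replicating inside host cells; inhibitors lower the luminescence signal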
[8] = inhibitors of SNCA 5'UTR-driven reporter translation, confirmation, H4 neuroglioma cells, luminescence (AID 1988); type: functional, cell-based
[9] = inhibitors of firefly luciferase expression or activity, dose response, H4 neuroglioma cells, luminescence (AID 1990); type: functional, cell-based
[10] = molecular target: T3, Replicative DNA helicase DnaB (Mycobacterium tuberculosis, UniProt P9WMR3); experiment: DnaB intein splicing inhibitors, dose response, biochemical, cell-free fluorescence (AID 449749); type: functional
T3 sequence (P9WMR3 whole entry): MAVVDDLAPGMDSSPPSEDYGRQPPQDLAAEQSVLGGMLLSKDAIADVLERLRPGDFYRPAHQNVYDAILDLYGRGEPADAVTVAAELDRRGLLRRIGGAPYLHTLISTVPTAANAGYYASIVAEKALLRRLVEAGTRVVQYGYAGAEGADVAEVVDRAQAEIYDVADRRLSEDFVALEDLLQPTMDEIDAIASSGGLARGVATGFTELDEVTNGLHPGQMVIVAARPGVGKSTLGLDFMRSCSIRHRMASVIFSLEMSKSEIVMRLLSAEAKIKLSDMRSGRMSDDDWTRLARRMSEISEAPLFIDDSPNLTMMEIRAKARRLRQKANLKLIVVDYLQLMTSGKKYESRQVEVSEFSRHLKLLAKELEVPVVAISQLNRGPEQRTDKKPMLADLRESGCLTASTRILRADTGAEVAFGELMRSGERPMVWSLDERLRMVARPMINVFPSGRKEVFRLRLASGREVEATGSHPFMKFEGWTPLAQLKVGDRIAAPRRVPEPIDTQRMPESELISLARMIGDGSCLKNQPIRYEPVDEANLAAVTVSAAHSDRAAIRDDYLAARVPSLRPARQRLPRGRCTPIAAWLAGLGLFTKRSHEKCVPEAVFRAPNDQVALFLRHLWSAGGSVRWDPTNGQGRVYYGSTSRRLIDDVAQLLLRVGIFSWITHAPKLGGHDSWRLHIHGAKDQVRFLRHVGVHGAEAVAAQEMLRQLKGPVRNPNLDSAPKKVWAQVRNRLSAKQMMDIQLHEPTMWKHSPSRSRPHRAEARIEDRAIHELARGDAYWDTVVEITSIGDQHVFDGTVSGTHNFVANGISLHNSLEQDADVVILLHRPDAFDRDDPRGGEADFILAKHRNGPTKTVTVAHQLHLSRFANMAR

Protein RecA = molecular target: T4, Protein RecA (Mycobacterium tuberculosis, UniProt P9WHJ3); experiment: Fluorescence Cell-Free Homogeneous Dose Retest to Identify Inhibitors of RecA-Intein Splicing Activity. [Related pubchem assays (depositor defined):AID2097, AID2223, AID489010, AID492950]; type: functional
T4 sequence (P9WHJ3 whole entry): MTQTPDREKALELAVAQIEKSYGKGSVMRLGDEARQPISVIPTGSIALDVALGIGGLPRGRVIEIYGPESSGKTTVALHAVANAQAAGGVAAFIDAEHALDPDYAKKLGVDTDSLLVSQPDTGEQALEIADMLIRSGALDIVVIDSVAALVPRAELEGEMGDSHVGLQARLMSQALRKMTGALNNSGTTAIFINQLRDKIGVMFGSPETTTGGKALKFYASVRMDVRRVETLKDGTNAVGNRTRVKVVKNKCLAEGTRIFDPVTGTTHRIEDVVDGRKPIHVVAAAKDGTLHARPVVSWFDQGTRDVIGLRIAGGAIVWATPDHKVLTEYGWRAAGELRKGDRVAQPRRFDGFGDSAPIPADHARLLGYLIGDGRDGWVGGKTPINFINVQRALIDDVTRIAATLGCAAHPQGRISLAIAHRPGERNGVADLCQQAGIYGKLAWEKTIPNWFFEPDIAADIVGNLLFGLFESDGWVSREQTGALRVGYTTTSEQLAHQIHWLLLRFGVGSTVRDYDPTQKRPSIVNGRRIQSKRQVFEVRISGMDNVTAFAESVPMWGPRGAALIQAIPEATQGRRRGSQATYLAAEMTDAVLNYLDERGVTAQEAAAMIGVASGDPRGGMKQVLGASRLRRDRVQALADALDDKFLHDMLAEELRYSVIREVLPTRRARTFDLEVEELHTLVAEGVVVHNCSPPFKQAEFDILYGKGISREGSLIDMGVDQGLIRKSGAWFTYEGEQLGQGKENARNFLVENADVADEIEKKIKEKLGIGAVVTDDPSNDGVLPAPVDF

Paired box protein Pax-8 = Paired box protein Pax-8 (Homo sapiens, UniProt Q06710); experiment: inhibitors of PAX8-driven TPO luciferase reporter, dose response, RMG-I cells, cherry-pick (AID 687027); type: functional, cell-based;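 note: luciferase reporter driven by Pax8 target thyroperoxidase promoter measured by SteadyGlo luminescence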
Chain of Paired box protein Pax-8 (Q06710 whole entry): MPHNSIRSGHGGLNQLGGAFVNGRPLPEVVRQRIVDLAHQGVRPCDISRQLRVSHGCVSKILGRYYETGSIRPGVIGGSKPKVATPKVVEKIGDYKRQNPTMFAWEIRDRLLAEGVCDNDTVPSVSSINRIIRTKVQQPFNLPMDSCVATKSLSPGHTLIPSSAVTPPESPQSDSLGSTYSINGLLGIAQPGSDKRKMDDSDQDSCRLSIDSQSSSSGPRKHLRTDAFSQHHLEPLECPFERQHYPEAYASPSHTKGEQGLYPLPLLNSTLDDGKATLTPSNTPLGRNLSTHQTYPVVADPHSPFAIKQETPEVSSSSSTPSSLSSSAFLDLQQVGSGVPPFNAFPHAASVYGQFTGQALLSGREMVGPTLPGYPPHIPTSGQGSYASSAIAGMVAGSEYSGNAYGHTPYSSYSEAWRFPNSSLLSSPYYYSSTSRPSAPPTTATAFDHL

SN12K1 = experiment: cells; type: functional; conditions: Homo sapiens
P388/ADR = experiment: cells; type: functional; conditions: Mus musculus
[11] = P. falciparum Dd2 growth inhibitors, dose response, SYBR Green, cherry-picked samples (AID 1159567); type: functional, cell-based

## CCOC(=O)C1CCN(C(=O)c2ccc3c(=O)n4nc(Nc5cc(C)ccc5C)sc4nc3c2)CC1
[1]
  EC50: > 150 µM (inactive)
[2]
  EC50: 9.44 µM (active)
Streptococcus
  EC50: 37.4 µM (active)
Streptokinase A
  EC50: > 150 µM (not active)
[3]
  EC50: 2.55 µM (active)

## CC(NCc1ccc(S(N)(=O)=O)cc1)C(=O)N1c2ccccc2CC1C (stereo not drawn)
[4]
  IC50: 135 µM (active)

## CCOC(=O)/C(C#N)=C1\C(=O)N(Cc2ccccc2)c2ccccc21
[4]
  IC50: 42.4 µM (active)

## Cc1cccc2c1Sc1ccc(Cl)cc1CC2N1CCNCC1 (stereo not drawn)
[5]
  EC50: 12.9 µM (active)
[6]
  EC50: 116 µM (active)
[7]
  EC50: 3.13 µM (active)
[8]
  EC50: 11.7 µM (active)
[9]
  EC50: > 120 µM (not active)

## COC(=O)c1ccccc1OC(=O)c1ccc(Br)o1
[10]
  AC50: 12.8 µM (active)
Protein RecA
  EC50: 15.2 µM (active)

## O=c1c2ccccc2nc(-c2ccc([N+](=O)[O-])cc2)n1O
[1]
  EC50: > 150 µM (inactive)

## CC(C)C(=O)Nc1cccc(C(=O)Nc2ccccc2C(=O)O)c1
[6]
  EC50: > 120 µM (not active)
[8]
  EC50: > 120 µM (not active)
[9]
  EC50: 47.8 µM (active)

## CCN(Cc1ccccc1)C1CCN(Cc2ccc(SC)cc2)CC1
[4]
  IC50: 100 µM (active)

## CCNC(=O)c1ccccc1-c1nc(-c2ccccc2)no1
[10]
  AC50: > 380 µM (inactive)
Protein RecA
  EC50: > 380 µM (inactive)

## Cc1cc2c(cc(C(=O)OCC(=O)NCc3ccco3)n2C)s1
[1]
  EC50: 22.4 µM (active)
[3]
  EC50: > 38 µM (not active)

## COc1cccc(C2Nc3ccccc3C(=O)N2Cc2ccccc2)c1 (stereo not drawn)
[6]
  EC50: > 120 µM (not active)
[8]
  EC50: > 120 µM (not active)
[9]
  EC50: > 120 µM (not active)

## O=C(CNCc1ccc(Cl)cc1)Nc1ccc2c(c1)OCCO2
[4]
  IC50: 156 µM (active)

## CN1C(=O)C(Cc2ccc3c(c2)OCO3)C(=O)N(C)C1=O
[10]
  AC50: 35.3 µM (active)
Protein RecA
  EC50: 10 µM (active)

## O=C(NCc1ccccn1)c1ccc(Cn2c(=S)[nH]c3ccc(Br)cc3c2=O)cc1
[6]
  EC50: > 120 µM (not active)
[8]
  EC50: > 120 µM (not active)
[9]
  EC50: > 120 µM (not active)

## Cc1ccc(N2C(S)=C(C#N)C(=O)NC2c2cccs2)cc1 (stereo not drawn)
[4]
  IC50: 128 µM (active)

## CC1=NNC(=O)C1Cc1ccccc1 (stereo not drawn)
[10]
  AC50: 0.651 µM (active)
Protein RecA
  EC50: 0.294 µM (active)

## COc1ccc(F)cc1-c1cc(NC=O)c2ncc(-c3cc(OC)c(OC)c(OC)c3)n2c1
Paired box protein Pax-8
  AC50: 3.49 µM (active)

## O=C(NCCCl)O/N=C/c1cccnc1
SN12K1
  GI50: > 100 µM (inactive)
P388/ADR
  GI50: 52.5 µM (inactive)

## C/C=C(\C)C(=O)OC1C2C(C)=CC(=O)C(O)C2(C)C2C3(O)OCC24C1OC(=O)C(OC(C)=O)C4C(C)C3O (stereo not drawn)
P388/ADR
  GI50: 0.319 µM (active)

## Oc1ccc(-c2nccs2)cc1
[4]
  IC50: 28.1 µM (active)

## COc1cc(C(=O)NCC(c2cccs2)N2CCOCC2)ccc1OCc1ccc(Cl)cc1 (stereo not drawn)
Paired box protein Pax-8
  AC50: 22 µM (active)

## Cc1ccc(S(=O)(=O)Nc2ccc3c(c2)C(=O)N([C@H](C)CO)C[C@H](C)[C@H](CN(C)C(=O)c2ccccc2)OCCCC[C@H](C)O3)cc1
Paired box protein Pax-8
  AC50: 19.4 µM (active)

## COc1ccc(S(=O)(=O)Nc2ccc3c(c2)C(=O)N([C@@H](C)CO)C[C@H](C)[C@H](CN(C)Cc2ccc(C(F)(F)F)cc2)OCCCC[C@@H](C)O3)cc1
Paired box protein Pax-8
  AC50: 7.68 µM (active)

## CC1(C)OC(C)(C)C(/C=N/c2ccc(O)cc2)=C1O
[4]
  IC50: 17 µM (active)

## O=C(N/N=C/c1ccc(O)cc1)NC12CC3CC(CC(C3)C1)C2
[4]
  IC50: 55.9 µM (active)

## CO[C@@H]1CN(C)C(=O)c2cc(NC(=O)Nc3ccc(C(F)(F)F)cc3)ccc2OC[C@@H](C)NC[C@@H]1C
[11]
  AC50: 5.92 µM (active)

## CN(C)CC(=O)N1[C@H](CO)[C@H](c2ccc(C#CC3CCCCC3)cc2)[C@@H]1C#N
[11]
  AC50: 8.31 µM (active)

## N#C[C@@H]1[C@@H](c2ccccc2-c2ccccc2F)[C@@H](CO)N1C(=O)C1CCOCC1
[11]
  AC50: 24.2 µM (active)
